Reference: ChEMBL document CHEMBL1151028, “Synthesis of -hydroxy statine through a facially selective osmylation of a chiral -amido crotonate” (Bioorg Med Chem Lett, 1995)
pIC50: −log10 of the molar value. Where a SMILES comes first, the peptide text is derived from it. [ ]: non-standard residue; d: D form. The star is where a group is joined. Sta = CC(C)C[C@H](N)[C@@H](O)CC(=O)O; Boc = CC(C)(C)OC(=O)*; GABA = NCCCC(=O)O

Target: T1, Renin (Homo sapiens, UniProt P00797)
T1 sequence (P00797 whole entry): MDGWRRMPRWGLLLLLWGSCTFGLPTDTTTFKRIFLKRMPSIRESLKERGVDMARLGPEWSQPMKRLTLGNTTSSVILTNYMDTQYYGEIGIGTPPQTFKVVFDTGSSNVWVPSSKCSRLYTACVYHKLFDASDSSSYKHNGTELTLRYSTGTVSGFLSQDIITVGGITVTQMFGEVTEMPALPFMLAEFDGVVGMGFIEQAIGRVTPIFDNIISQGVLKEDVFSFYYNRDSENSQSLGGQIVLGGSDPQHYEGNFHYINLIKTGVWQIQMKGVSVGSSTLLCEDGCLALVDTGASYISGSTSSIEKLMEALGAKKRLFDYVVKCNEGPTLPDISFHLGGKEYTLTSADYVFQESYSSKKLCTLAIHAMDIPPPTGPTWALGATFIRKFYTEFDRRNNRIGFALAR
Assay: Inhibitory activity against renin was determined

Row | Structure (SMILES) | pIC50
1 | CC(C)C[C@H](NC(=O)[C@H](Cc1cnc[nH]1)NC(=O)[C@H](Cc1ccccc1)NC(=O)OC(C)(C)C)[C@H](O)[C@@H](O)C(=O)NCCCC(=O)O | 4.20
2 | CC(C)C[C@H](NC(=O)[C@H](Cc1c[nH]cn1)NC(=O)[C@H](Cc1ccccc1)NC(=O)OC(C)(C)C)[C@@H](O)[C@H](O)C(=O)NCCCC(=O)O | 5.52
3 | CC(C)C[C@H](NC(=O)[C@H](Cc1cnc[nH]1)NC(=O)[C@H](Cc1ccccc1)NC(=O)OC(C)(C)C)[C@@H](O)CC(=O)NCCCC(=O)O (Boc-FH[Sta][GABA]-OH) | 5.49
